Results reported in ChEMBL document CHEMBL1201862, “PubChem BioAssay data set” (2004).
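Exposure lasted 48 hours, with cells grown in 96-well plates and compounds tested at five concentrations. At the GI50, growth is halved.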 Calls of active or inactive are those of the source. Cut-off read from the data, not from the text of the source: active = GI50 up to about 1.1 µM and inactive = higher.

What was measured:
Test in all cases: NCI-60 cell line screen, 48 h
MCF7 = tested on: MCF7
DLD-1 = tested on: DLD-1
HOP-18 = tested on: HOP-18
NCI/ADR-RES = tested on: NCI/ADR-RES
XF498 = tested on: XF498
DMS-273 = tested on: DMS-273
OVCAR-4 = tested on: OVCAR-4
KM-20L2 = tested on: KM-20L2
M19-MEL = tested on: M19-MEL
CAKI-1 = tested on: CAKI-1
HOP-62 = tested on: HOP-62
SNB-78 = tested on: SNB-78
DMS-114 = tested on: DMS-114
Malme-3M = tested on: Malme-3M
SR = tested on: SR
ACHN = tested on: ACHN
TK-10 = tested on: TK-10
NCI-H226 = tested on: NCI-H226
M14 = tested on: M14
RXF 631 = tested on: RXF 631

Row | Structure (SMILES) | GI50 (MCF7) | GI50 (DLD-1) | GI50 (HOP-18) | GI50 (NCI/ADR-RES) | GI50 (XF498) | GI50 (DMS-273) | GI50 (OVCAR-4) | GI50 (KM-20L2) | GI50 (M19-MEL) | GI50 (CAKI-1) | GI50 (HOP-62) | GI50 (SNB-78) | GI50 (DMS-114) | GI50 (Malme-3M) | GI50 (SR) | GI50 (ACHN) | GI50 (TK-10) | GI50 (NCI-H226) | GI50 (M14) | GI50 (RXF 631)
1 | COc1ccc2c(c1)OCCc1cn[nH]c1-2 | 26.7 µM (inactive) | 36.7 µM (inactive) | 30.8 µM (inactive) | 35.3 µM (inactive) | 29 µM (inactive) | 32.2 µM (inactive) | 48.6 µM (inactive) | 54 µM (inactive) | 69 µM (inactive) | < 0.01 µM (active) | 56.6 µM (inactive) | 29.1 µM (inactive) | 27.3 µM (inactive) | 38.9 µM (inactive) |  |  |  |  |  | 
2 | CCOC(=O)C1(CO)CSCCSC1 | > 100 µM (inactive) |  |  | > 100 µM (inactive) |  |  |  |  |  |  |  |  |  |  | > 100 µM (inactive) | > 100 µM (inactive) | > 100 µM (inactive) | > 100 µM (inactive) |  | 
3 | CSc1nc2c(ncn2C2OC(CO)C(O)C(O)C2O)c(=O)[nH]1 (stereo not given) | > 100 µM (inactive) | > 100 µM (inactive) | > 100 µM (inactive) | > 100 µM (inactive) | > 100 µM (inactive) | > 100 µM (inactive) | > 100 µM (inactive) | > 100 µM (inactive) | > 100 µM (inactive) |  | > 92.5 µM (inactive) | > 100 µM (inactive) | > 100 µM (inactive) | > 100 µM (inactive) |  |  |  | > 100 µM (inactive) |  | 
4 | CC(C)c1cccc(C(C)C)c1NC(=S)Nc1ccccc1 |  | > 100 µM (inactive) | > 100 µM (inactive) |  | 0.434 µM (active) | > 100 µM (inactive) | 10.8 µM (inactive) | > 100 µM (inactive) | > 100 µM (inactive) |  | > 100 µM (inactive) | > 100 µM (inactive) | 43 µM (inactive) | > 100 µM (inactive) | > 100 µM (inactive) | > 100 µM (inactive) | > 100 µM (inactive) | > 100 µM (inactive) | > 100 µM (inactive) | > 100 µM (inactive)
5 | O=S(=O)(CF)OCCCCOS(=O)(=O)CF |  |  | > 100 µM (inactive) |  |  | 75.9 µM (inactive) |  | > 100 µM (inactive) | > 100 µM (inactive) | > 100 µM (inactive) |  | > 100 µM (inactive) | 74 µM (inactive) | > 100 µM (inactive) |  | 20.4 µM (inactive) | > 100 µM (inactive) | > 100 µM (inactive) | > 100 µM (inactive) | > 100 µM (inactive)
6 | C=CCOC1OC(CS(=O)(=O)O)C(OC(C)=O)C(OC(C)=O)C1OC(C)=O (stereo not given) | > 100 µM (inactive) |  |  | > 100 µM (inactive) |  |  | > 100 µM (inactive) |  |  | > 100 µM (inactive) | > 100 µM (inactive) |  |  | > 100 µM (inactive) | > 100 µM (inactive) |  | > 100 µM (inactive) | > 100 µM (inactive) | > 100 µM (inactive) | 
7 | CCc1nnc(-c2nsc3ccccc23)s1 |  |  | > 100 µM (inactive) |  |  | > 100 µM (inactive) | > 100 µM (inactive) | 63.5 µM (inactive) |  |  | > 100 µM (inactive) | > 100 µM (inactive) | > 100 µM (inactive) |  | 53 µM (inactive) | > 100 µM (inactive) | > 100 µM (inactive) |  | > 100 µM (inactive) | 
